Source: BindingDB's records for PubMed 39140043 (Usona Institute)

Target: GTPase KRas (Homo sapiens, UniProt P01116)
Assay: Inhibition of GDP bound KRAS G12V mutant (unknown origin)

Chain of GTPase KRas (P01116 whole entry G12V): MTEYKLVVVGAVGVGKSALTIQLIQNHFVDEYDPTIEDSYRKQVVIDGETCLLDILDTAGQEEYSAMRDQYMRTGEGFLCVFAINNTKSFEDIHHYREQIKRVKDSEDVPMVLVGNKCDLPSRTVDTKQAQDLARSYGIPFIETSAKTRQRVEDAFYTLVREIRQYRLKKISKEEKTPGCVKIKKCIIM

In the case of `C#Cc1c(F)ccc2cc(O)cc(-c3ncc4c(N(C)[C@H]5C[C@@H]5F)nc(OCC56CCCN5CC(=C)C6)nc4c3F)c12` (stereo partly specified), the IC50 is reported as 0.371 nM.
